pEC50: −log10 of the molar value. Read-outs that look alike come from different tables or passages of the source.
Columns and labels:
human PR-B = biological target: T1, human PR-B (Homo sapiens, UniProt P06401); assay: PR-B transactivation of MMTVLuc reporter in transiently transfected 1470.2 cells; type: cell-based; conditions: for pEC50: read-out: EC50 from dose-response curves
T1 construct: expressed in transfected cells; host or cells: 1470.2 mouse mammary adenocarcinoma cells
T1 sequence (P06401 1-933): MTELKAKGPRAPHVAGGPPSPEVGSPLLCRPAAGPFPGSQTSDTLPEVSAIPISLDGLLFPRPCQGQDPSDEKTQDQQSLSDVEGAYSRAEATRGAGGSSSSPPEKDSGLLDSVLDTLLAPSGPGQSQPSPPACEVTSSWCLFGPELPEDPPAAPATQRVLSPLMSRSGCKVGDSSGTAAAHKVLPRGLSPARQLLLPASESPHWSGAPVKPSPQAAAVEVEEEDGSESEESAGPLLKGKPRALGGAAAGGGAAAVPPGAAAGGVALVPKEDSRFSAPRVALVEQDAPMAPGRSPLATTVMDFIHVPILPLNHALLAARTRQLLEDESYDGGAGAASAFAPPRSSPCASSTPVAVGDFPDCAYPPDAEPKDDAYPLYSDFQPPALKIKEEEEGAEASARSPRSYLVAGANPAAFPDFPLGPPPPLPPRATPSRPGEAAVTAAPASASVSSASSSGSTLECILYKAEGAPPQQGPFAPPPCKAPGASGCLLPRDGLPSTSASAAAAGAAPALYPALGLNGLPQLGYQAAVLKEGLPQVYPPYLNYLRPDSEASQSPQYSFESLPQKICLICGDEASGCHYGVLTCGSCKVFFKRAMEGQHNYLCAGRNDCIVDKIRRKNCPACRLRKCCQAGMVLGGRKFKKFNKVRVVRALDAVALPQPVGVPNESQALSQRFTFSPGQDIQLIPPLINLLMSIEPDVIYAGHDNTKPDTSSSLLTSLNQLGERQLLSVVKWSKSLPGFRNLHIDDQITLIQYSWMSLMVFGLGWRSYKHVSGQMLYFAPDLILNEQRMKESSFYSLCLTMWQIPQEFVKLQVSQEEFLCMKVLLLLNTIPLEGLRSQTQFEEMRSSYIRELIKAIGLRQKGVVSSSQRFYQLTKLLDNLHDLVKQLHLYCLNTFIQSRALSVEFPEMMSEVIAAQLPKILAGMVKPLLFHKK
From the text: All data were normalized for Renilla expression. […] The error bars represent the SD of triplicate plates.
All data were normalized for protein levels in the cell lysates. […] The error bars represent the SD of triplicate plates.
All data were normalized for Renilla expression.

PR [1] = biological target: T2, PR (Homo sapiens, UniProt P06401)
T2 sequence (P06401 1-933): T1 sequence (P06401 1-933)
From the text: The absolute levels of luciferase activity (±S.D. of triplicate values) were plotted.

PR [2] = biological target: T2, PR; type: cell-based; design: expressed in transfected cells; host or cells: CV-1 cells
Experimental: Cell culture and transfection: Monolayer cultures of COS-7 cells were grown at 37° C. with 5% CO2 in Dulbecco's modified Eagle's medium (DMEM; GIBCO/BRL Life Technologies, Inc.) supplemented with 5% of fetal bovine serum, respectively. The 1470.2 mouse mammary adenocarcinoma cells (Pennie et al., Mol Cell Biol 15:2125-2134, 1995) were grown in DMEM with 4.5 g glucose/L (Quality Biologicals, Inc.) whereas T47D cells were grown in Dulbecco's modified Eagle's medium with high glucose (4.5 g/L, 2 mM glutamine, and 60 ng/ml insulin), both with 10% of fetal bovine serum. The 1470.2 cells were transiently transfected with the human PR-B construct, 1 μg of MMTVLuc, and 50 ng Renilla null luciferase, with the total transfected DNA brought up to 3 μg/60 mm dish with pBSK^+DNA, using the calcium phosphate method as previously described (Szapary et al., J Biol Chem 271:30576-30582, 1996). Following 24 h of steroid treatment, the cells were harvested in 1× Passive Lysis Buffer (0.5 ml/dish; Promega, Madison, Wis.). Twenty μl of the cell lysates were used to assay for luciferase activity using the Dual-Luciferase Assay System from Promega (Madison, Wis.) and the methods recommended by the supplier. […]

[3] = 1470.2 cells, transfected human PR-B, MMTVLuc reporter

| pEC50 (human PR-B; [3]) | Structure (SMILES) | partial progestin activity with added PR (human PR-B; 1470.2 cells, 3 or 30 ng PR-B plasmid, 1 μM steroid, FIG. 5B) | antiprogestin activity: inhibition of the action of 300 pM R5020 (PR [1]; 1 μM and 10 μM Dex-Mes, 1 μM Dex-Ox, FIG. 7) | agonist activity in CV-1 cells (PR [2]; CV-1 cells) | partial progestin activity with added PR (human PR-B) | pEC50 (human PR-B) | antiprogestin activity: inhibition of the action of 300 pM R5020 (PR [1]) | agonist activity in CV-1 cells (PR [2]) |
| --- | --- | --- | --- | --- | --- | --- | --- | --- |
| ~6.46 | C[C@@H]1C[C@H]2[C@@H]3CCC4=CC(=O)C=C[C@]4(C)[C@@]3(F)[C@@H](O)C[C@]2(C)[C@@]1(O)C(=O)COS(C)(=O)=O [Dex-Mes, dexamethasone 21-mesylate] | significant amounts of partial progestin activity | reduced the activity of 300 pM R5020 to that of the competing steroid alone | much more agonist activity than either RIT 3021-020 or RU 486 | – | – | – | – |
| – | C[C@@H]1C[C@H]2[C@@H]3CCC4=CC(=O)C=C[C@]4(C)[C@@]3(F)[C@@H](O)C[C@]2(C)[C@]12OCC2=O [Dex-Ox, dexamethasone oxetanone] | – | – | – | significant amounts of partial progestin activity | ~7.52 | reduced the activity of 300 pM R5020 to that of the competing steroid alone | much more agonist activity than either RIT 3021-020 or RU 486 |
| 9.40 | CCC(=O)[C@@]1(C)CC[C@H]2[C@@H]3CCC4=CC(=O)CCC4=C3CC[C@@]21C [R5020, promegestone, reference compound] | – | – | – | – | – | – | – |

From patent US20030207854A1, “Antiprogestins with partial agonist activity” (priority 2002, published 2003)
